Results taken from the supplement of paper PMC10307832.

Experiments:
Experiment in all cases: relative viability (nuclei count vs DMSO), 5 days (fraction); higher = more cells survive
AZD5582 = compound: C[C@@H](C(=O)N[C@@H](C1CCCCC1)C(=O)N2CCC[C@H]2C(=O)N[C@@H]3[C@@H](CC4=CC=CC=C34)OCC#CC#CCO[C@@H]5CC6=CC=CC=C6[C@@H]5NC(=O)[C@@H]7CCCN7C(=O)[C@H](C8CCCCC8)NC(=O)[C@H](C)NC)NC [AZD5582]
In short: (§1)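 On vehicle-anchored 1536-well plates, lung cancer cell lines held overnight at 37 °C were pinned with five library-drug doses (not always all listed) spaced by √10. With no medium change over 5 days, they were then fixed, permeabilised and Hoechst-stained in one step and imaged at 4×. MetaXpress counted nuclei, and viability is the median across plates of treated-well over vehicle-well nuclei. Acceptance needed control CV below 25% and at least one doubling.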

Temozolomide = compound: Cn1nnc2c(C(N)=O)ncn2c1=O [Temozolomide]
In short: as §1

[1] = compound: Cn1nnc2c(C(N)=O)ncn2c1=O [Temozolomide] + CC1(C)CCC(c2ccc(Cl)cc2)=C(CN2CCN(c3ccc(C(=O)NS(=O)(=O)c4ccc(N[C@H](CCN5CCOCC5)CSc5ccccc5)c(S(=O)(=O)C(F)(F)F)c4)cc3)CC2)C1 [Navitoclax] (partner 0.5 µM)
In short: (§2)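 The day after seeding in 1536-well plates, lung cancer cell lines were treated by pin tool with a single drug, or with a fixed anchor-drug dose together with five library-drug doses (not always all listed) in √10 steps. After 5 days, a combined fix-and-stain solution (final 0.05% Triton X-100, 1% formaldehyde, 1 ug/ml Hoechst) was added. Nuclei counted on 4× images gave relative viability as treated counts over vehicle counts, reported as the median of duplicate plates.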

AZD5582 + Trametinib = compound: C[C@@H](C(=O)N[C@@H](C1CCCCC1)C(=O)N2CCC[C@H]2C(=O)N[C@@H]3[C@@H](CC4=CC=CC=C34)OCC#CC#CCO[C@@H]5CC6=CC=CC=C6[C@@H]5NC(=O)[C@@H]7CCCN7C(=O)[C@H](C8CCCCC8)NC(=O)[C@H](C)NC)NC [AZD5582] + CC(=O)Nc1cccc(-n2c(=O)n(C3CC3)c(=O)c3c(Nc4ccc(I)cc4F)n(C)c(=O)c(C)c32)c1 [Trametinib] (partner 0.02 µM)
In short: as §2

Cell Line | relative viability (AZD5582; 0.001581 µM) | relative viability (AZD5582; 0.005 µM) | relative viability (AZD5582; 0.01581 µM) | relative viability (AZD5582; 0.05 µM) | relative viability (Temozolomide; 0.2 µM) | relative viability (Temozolomide; 0.6325 µM) | relative viability (Temozolomide; 2 µM) | relative viability (Temozolomide; 6.325 µM) | relative viability (Temozolomide; 20 µM) | relative viability ([1]; first compound 0.2 µM) | relative viability ([1]; first compound 0.6325 µM) | relative viability ([1]; first compound 2 µM) | relative viability ([1]; first compound 6.325 µM) | relative viability ([1]; first compound 20 µM) | relative viability (AZD5582 + Trametinib; first compound 0.001581 µM) | relative viability (AZD5582 + Trametinib; first compound 0.005 µM) | relative viability (AZD5582 + Trametinib; first compound 0.01581 µM) | relative viability (AZD5582 + Trametinib; first compound 0.05 µM)
ABC-1 | 0.898 | 1.03 | 0.767 | 0.936 | 1.07 | 0.925 | 1.08 | 0.958 | 1.02 |  |  |  |  |  |  |  |  | 
201T | 1.03 | 1.15 | 0.971 | 1.21 | 0.978 | 1 | 1.01 | 0.961 | 0.977 | 1.17 | 1.18 | 1.21 | 1.2 | 1.22 | 0.786 | 0.842 | 0.719 | 0.847
NCI-H596 | 0.84 |  | 0.999 | 0.358 | 0.932 | 0.953 | 1.01 | 0.925 | 0.959 | 0.9 | 0.924 | 0.946 | 0.977 | 0.981 | 0.738 |  | 0.8 | 0.588
EKVX | 0.957 | 1.13 | 0.794 | 1.01 | 0.618 | 0.97 | 0.967 | 0.921 | 0.66 | 0.856 | 0.962 | 0.902 | 0.976 | 0.597 | 0.276 | 0.405 | 0.289 | 0.376
LOU-NH91 | 0.924 | 0.944 | 0.882 | 0.925 | 0.856 | 0.979 | 0.993 | 0.926 | 0.786 | 0.395 | 0.738 | 0.702 | 0.596 | 0.361 | 0.772 | 0.767 | 0.781 | 0.808
NCI-H650 | 0.842 | 0.982 | 0.542 | 0.564 | 1.01 | 0.975 | 1.02 | 0.974 | 0.913 |  |  |  |  |  | 0.919 | 1.05 | 0.987 | 0.944
NCI-H522 | 0.841 | 1 | 0.957 | 0.795 | 0.842 | 0.985 | 1.02 | 0.998 | 0.915 |  |  |  |  |  | 0.628 | 0.777 | 0.724 | 0.747
IA-LM | 0.77 | 0.86 | 0.828 | 0.897 | 1.11 | 0.94 | 1 | 0.961 | 0.951 | 0.832 | 0.69 | 0.836 | 0.825 | 0.615 |  |  |  | 
NCI-H1299 | 1 | 1.02 | 1 | 0.991 | 1.03 | 1.04 | 1.07 | 1.03 | 1.03 | 1.04 | 1.09 | 1.06 | 1.01 | 1.08 |  |  |  | 
NCI-H1623 | 1.03 | 1.08 | 0.995 | 0.95 |  | 1.18 | 1.04 | 0.979 | 0.66 |  |  |  |  |  |  |  |  | 
LCLC-103H | 1.02 | 1.14 | 0.852 | 1.01 | 0.995 | 1 | 1.06 | 0.928 | 0.92 |  |  |  |  |  | 0.702 | 0.813 | 0.643 | 0.828
NCI-H1563 | 0.957 | 0.936 | 0.836 | 1.07 | 0.903 | 0.937 | 0.999 | 0.99 | 0.993 |  |  |  |  |  |  |  |  | 
NCI-H661 | 0.984 | 1 | 0.984 | 1.07 | 0.993 | 0.935 | 1.04 | 0.947 | 0.843 |  |  |  |  |  | 0.524 | 0.697 | 0.589 | 0.648
NCI-H1648 | 0.607 | 0.894 | 0.554 | 0.824 |  | 0.889 | 0.903 | 0.746 | 0.893 |  |  |  |  |  | 0.38 | 0.511 |  | 0.412
Calu-6 | 0.83 | 0.724 | 0.989 | 0.573 | 1.08 | 1 | 1.07 | 0.954 | 0.99 | 0.927 | 0.804 | 0.942 | 0.82 | 0.781 |  |  |  | 
NCI-H2342 | 0.938 | 1.01 | 0.917 | 1.07 | 0.827 | 0.991 | 1.06 | 1.03 | 0.912 |  |  |  |  |  | 0.792 | 0.922 | 0.693 | 0.932
EBC-1 | 0.867 | 0.95 | 0.964 | 0.948 | 0.997 | 1.01 | 1.06 | 0.917 | 1.09 | 0.512 | 0.41 | 0.358 | 0.384 | 0.404 |  |  |  | 
NCI-H358 | 0.915 | 1.17 | 0.944 | 0.972 | 0.855 | 1.02 | 1 | 0.904 | 0.777 |  |  |  |  |  | 0.156 | 0.157 | 0.142 | 0.147
A549 | 0.876 | 1.01 | 0.928 | 0.999 | 1.04 | 1.02 | 0.986 | 0.913 | 0.998 | 1.07 | 1.34 | 1.25 | 1.23 | 1.24 |  |  |  | 
SW 900 | 0.628 | 0.851 | 0.684 | 0.466 | 1.07 | 1.1 | 0.984 | 0.772 | 0.793 |  |  |  |  |  | 0.634 | 0.865 | 0.758 | 0.615
